Like-named read-outs stand apart in the source and are kept apart here.
Target: T1, human CCR7 (Homo sapiens, UniProt P32248)
T1 construct: expressed in transfected cells
T1 sequence (P32248 25-378): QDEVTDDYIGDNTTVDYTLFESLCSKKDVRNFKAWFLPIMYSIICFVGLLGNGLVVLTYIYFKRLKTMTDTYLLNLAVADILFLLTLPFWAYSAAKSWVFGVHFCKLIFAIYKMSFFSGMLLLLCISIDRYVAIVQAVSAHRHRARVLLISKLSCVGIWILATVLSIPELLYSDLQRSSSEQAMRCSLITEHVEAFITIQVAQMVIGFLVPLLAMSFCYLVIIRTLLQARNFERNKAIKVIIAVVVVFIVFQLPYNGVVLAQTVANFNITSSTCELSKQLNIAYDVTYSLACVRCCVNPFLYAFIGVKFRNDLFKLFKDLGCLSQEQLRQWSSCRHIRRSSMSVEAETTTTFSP
Experiment: CCL19-induced calcium mobilization assay, U87.CD4 cells expressing CCR7
Assay type: cell-based
Conditions: for IC50: read-out: IC50 [μM] block CCL19 induced calcium signaling
Outline: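 Calcium mobilization was recorded in U87.CD4 cells stably carrying human CXCR2 (stimulated with CXCL8), CCR7 (stimulated with CCL19) or CCR5. Cells were plated at 20,000 cells/well, cultured overnight at 37°C in 5% CO2, and incubated 45 min at room temperature in the dark before reading.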

[1] = CCL19-induced calcium signaling
[2] = classification of tested compounds as decoy or active
[3] = CCL19 induced calcium signaling
[4] = classification as decoy or active on CCR7

IC50 [1] | Decoy – 0 Active – 1 [2] | IC50 [3] | Decoy – 0 Active – 1 [4] | Structure (SMILES)
– | – | > 50 µM | 0 | CC1CCc2c(F)cccc2C1NC(=O)c1n[nH]c(=O)[nH]1 (stereo not drawn) [C222, CC1CCc2c(F)cccc2C1NC(=O)c1n[nH]c(=O)[nH]1]
> 50 µM | 0 | – | – | Cc1cccc2c(=O)n(CCC(=O)N[C@@H](c3ccccc3)C(C)C)cnc12 [C131, Cc1cccc2c(=O)n(CCC(=O)N[C@@H](c3ccccc3)C(C)C)cnc12]
– | – | > 50 µM | 0 | COc1cccc(C2CC(O)CN2Cc2nc3ccccc3[nH]2)c1 (stereo not drawn) [C279, COc1cccc(C2CC(O)CN2Cc2nc3ccccc3[nH]2)c1]
– | – | > 50 µM | 0 | Cc1ccccc1NC(=O)c1c(O)nc2ccccc2c1O [C170, Cc1ccccc1NC(=O)c1c(O)nc2ccccc2c1O]
> 50 µM | 0 | – | – | O=S1(=O)N=C(NCc2ccccn2)c2ccccc21 [C149, O=S1(=O)N=C(NCc2ccccn2)c2ccccc21]
– | – | > 50 µM | 0 | CN(Cc1ccccc1Cl)C(C(=O)O)c1ccc(F)c(CO)c1 (stereo not drawn) [C171, C[NH+](Cc1ccccc1Cl)C(C(=O)[O-])c1ccc(F)c(CO)c1]
> 50 µM | 0 | – | – | CN(C)C(=O)c1cc(NC(=O)NCC(C)(C)c2ccccc2)ccn1 [C129, CN(C)C(=O)c1cc(NC(=O)NCC(C)(C)c2ccccc2)ccn1]
> 50 µM | 0 | – | – | CC(=O)N[C@@H](Cc1ccccc1)C(=O)N[C@H](C)c1ccccc1 [C144, CC(=O)N[C@@H](Cc1ccccc1)C(=O)N[C@H](C)c1ccccc1]
– | – | > 50 µM | 0 | Cc1cc(NCCn2cccn2)c2ccc(C(F)(F)F)cc2n1 [C162, Cc1cc(NCCn2cccn2)c2ccc(C(F)(F)F)cc2[nH+]1]
– | – | > 50 µM | 0 | O=C(NCc1cccnc1-n1ccnc1)c1cc2ccccc2c(=O)[nH]1 [C215, O=C(NCc1cccnc1-n1ccnc1)c1cc2ccccc2c(=O)[nH]1]
– | – | > 50 µM | 0 | O=S(=O)(c1cccc(F)c1)N1CC(c2cccnc2)C(c2nc(C3CCCC3)no2)C1 (stereo not drawn) [C246, c1cc(cc(c1)S(=O)(=O)N2CC(C(C2)c3nc(no3)C4CCCC4)c5cccnc5)F]
– | – | > 50 µM | 0 | O=S(=O)(NC(c1cccnc1)C1CCOCC1)c1ccc2c(c1)CCO2 (stereo not drawn) [C256, c1cc(cnc1)C(C2CCOCC2)NS(=O)(=O)c3ccc4c(c3)CCO4]
> 50 µM | 0 | – | – | CC(C)Cc1cc(C(=O)N(Cc2ccccc2Cl)C(C)C)nc(=O)[nH]1 [C142, CC(C)Cc1cc(C(=O)N(Cc2ccccc2Cl)C(C)C)nc(=O)[nH]1]
– | – | > 50 µM | 0 | O=C(O)c1ccc(CNC(=O)C2(c3ccc(Cl)cc3)CCC2)o1 [C185, O=C([O-])c1ccc(CNC(=O)C2(c3ccc(Cl)cc3)CCC2)o1]

The remaining lines, values behind:

Structure (SMILES) | IC50 [1] | Decoy – 0 Active – 1 [2] | IC50 [3] | Decoy – 0 Active – 1 [4]
CNC(=O)c1ccc(C=CC(=O)N(Cc2ccsc2)C2CC2)cc1 [C059, CNC(=O)c1ccc(C=CC(=O)N(Cc2ccsc2)C2CC2)cc1] | > 10 µM | 0 | – | –
CN(C)CCNC(=S)Nc1cc(C(F)(F)F)cc(C(F)(F)F)c1 [C041, S=C(NCCN(C)C)NC1=CC(C(F)(F)F)=CC(C(F)(F)F)=C1] | > 50 µM | 0 | – | –
CC(Nc1c(NCc2ccc3c(c2)OCO3)c(=O)c1=O)c1ccccc1 (stereo not drawn) [C013, CC(Nc1c(NCc2ccc3c(c2)OCO3)c(=O)c1=O)c1ccccc1] | > 50 µM | 0 | – | –
CNC(=O)CN(c1ccc(Cl)cc1)S(=O)(=O)c1ccc(OC)c(OC)c1 [C270, CNC(=O)CN(c1ccc(cc1)Cl)S(=O)(=O)c2ccc(c(c2)OC)OC] | – | – | > 50 µM | 0
CCOC(=O)NC(=S)Nc1ncccn1 [C045, S=C(NC(OCC)=O)NC1=NC=CC=N1] | > 30 µM | 0 | – | –
CN(C)C(=O)c1cccc(NCC(=O)N(C)C2CCCCC2)c1 [C075, CN(C)C(=O)c1cccc(NCC(=O)N(C)C2CCCCC2)c1] | > 10 µM | 0 | – | –
CN(C)S(=O)(=O)c1ccc(-c2nnc(C(=O)NCc3ccccc3)o2)cc1 [C089, CN(C)S(=O)(=O)c1ccc(-c2nnc(C(=O)NCc3ccccc3)o2)cc1] | > 50 µM | 0 | – | –
COc1ccc2ccccc2c1CNc1c(N2CCSCC2)c(=O)c1=O [C004, COc1ccc2ccccc2c1CNc1c(N2CCSCC2)c(=O)c1=O] | > 50 µM | 0 | – | –
FC(F)(F)c1ccccc1NC(=S)Nc1ccn(Cc2ccc(Cl)cc2)n1 [C031, FC(F)(F)c1ccccc1NC(=S)Nc1ccn(Cc2ccc(Cl)cc2)n1] | > 30 µM | 0 | – | –
Cc1ccc(S(=O)(=O)N2c3ccccc3CC2CO)cc1[N+](=O)[O-] (stereo not drawn) [C266, Cc1ccc(cc1[N+](=O)[O-])S(=O)(=O)N2c3ccccc3CC2CO] | – | – | > 50 µM | 0
Cc1ccc(CNC(=O)c2nnc(-c3ccc(S(=O)(=O)N(C)C)cc3)o2)o1 [C088, Cc1ccc(CNC(=O)c2nnc(-c3ccc(S(=O)(=O)N(C)C)cc3)o2)o1] | > 50 µM | 0 | – | –
O=S1(=O)C[C@H](Nc2ccc(Cl)cc2)[C@H](NCc2ccccc2)C1 [C122, O=S1(=O)C[C@@H](NCc2ccccc2)[C@@H](Nc2ccc(Cl)cc2)C1] | > 50 µM | 0 | – | –
CC1CCCCN1C(=O)CNc1ccc(Cl)c(C(=O)N(C)C)c1 (stereo not drawn) [C073, CC1CCCCN1C(=O)CNc1ccc(Cl)c(C(=O)N(C)C)c1] | > 10 µM | 0 | – | –
Cc1ccc(N=C(N)C(N)=Nc2ccc(C)cc2)cc1 [C065, Cc1ccc([NH+]=C(N)C(N)=[NH+]c2ccc(C)cc2)cc1] | > 10 µM | 0 | – | –
O=C(NCC(C1CC1)C1CC1)N1CCC(O)(C(F)(F)F)CC1 [C166, O=C(NCC(C1CC1)C1CC1)N1CCC(O)(C(F)(F)F)CC1] | – | – | > 50 µM | 0
CCc1ccc(S(=O)(=O)NC2Cc3cc(C(=O)NC(C)C)nn3C2)cc1 (stereo not drawn) [C241, CCc1ccc(cc1)S(=O)(=O)NC2Cc3cc(nn3C2)C(=O)NC(C)C] | – | – | > 50 µM | 0
CC(C)(C)c1ccc(CN(Cc2ccccc2)Cc2nc(C(=O)N3CCOCC3)co2)cc1 [C243, CC(C)(C)c1ccc(cc1)C[NH+](Cc2ccccc2)Cc3nc(co3)C(=O)N4CCOCC4] | – | – | > 50 µM | 0
CN(C)C(=O)c1cc(NCC(=O)NCc2ccco2)ccc1F [C064, CN(C)C(=O)c1cc(NCC(=O)NCc2ccco2)ccc1F] | > 10 µM | 0 | – | –
O=C(CCCc1c[nH]c2ccccc12)N1CCN(C(=O)CCCc2c[nH]c3ccccc23)CC1 [C209, O=C(CCCc1c[nH]c2ccccc12)N1CCN(C(=O)CCCc2c[nH]c3ccccc23)CC1] | – | – | > 50 µM | 0
CCOC(=O)NC(=S)Nc1ccc2nsnc2c1 [C044, S=C(NC1=CC2=NSN=C2C=C1)NC(OCC)=O] | > 30 µM | 0 | – | –
FC(F)(F)c1cccc(NC(=S)NCc2ccccc2C(F)(F)F)c1 [C036, FC(F)(F)c1cccc(NC(=S)NCc2ccccc2C(F)(F)F)c1] | > 30 µM | 0 | – | –
CN(C)[C@@H]1CCCC[C@H]1NC(=S)Nc1cc(C(F)(F)F)cc(C(F)(F)F)c1 [C039, S=C(N[C@H]1[C@H](N(C)C)CCCC1)NC2=CC(C(F)(F)F)=CC(C(F)(F)F)=C2] | > 50 µM | 0 | – | –

Reference: paper PMC8972196, “A Set of Experimentally Validated Decoys for the Human CC Chemokine Receptor 7 (CCR7) Obtained by Virtual Screening” (Frontiers in Pharmacology, 2022)
